Measurements published in patent US8735406B2, “8-oxodihydropurine derivative” (Dainippon Sumitomo Pharma Co., Ltd., priority 2009, dated 2014).
pIC50: −log10 of the molar value. Read-outs that look alike come from different tables or passages of the source.

Target: T1, FAAH (Rattus norvegicus, UniProt P97612)
T1 construct: Preparation of Rat Brain Membranes Preparations (FAAH Enzyme Solution); from tissue; host or cells: rat cerebrum (brain membrane preparation)
T1 sequence (P97612 1-579): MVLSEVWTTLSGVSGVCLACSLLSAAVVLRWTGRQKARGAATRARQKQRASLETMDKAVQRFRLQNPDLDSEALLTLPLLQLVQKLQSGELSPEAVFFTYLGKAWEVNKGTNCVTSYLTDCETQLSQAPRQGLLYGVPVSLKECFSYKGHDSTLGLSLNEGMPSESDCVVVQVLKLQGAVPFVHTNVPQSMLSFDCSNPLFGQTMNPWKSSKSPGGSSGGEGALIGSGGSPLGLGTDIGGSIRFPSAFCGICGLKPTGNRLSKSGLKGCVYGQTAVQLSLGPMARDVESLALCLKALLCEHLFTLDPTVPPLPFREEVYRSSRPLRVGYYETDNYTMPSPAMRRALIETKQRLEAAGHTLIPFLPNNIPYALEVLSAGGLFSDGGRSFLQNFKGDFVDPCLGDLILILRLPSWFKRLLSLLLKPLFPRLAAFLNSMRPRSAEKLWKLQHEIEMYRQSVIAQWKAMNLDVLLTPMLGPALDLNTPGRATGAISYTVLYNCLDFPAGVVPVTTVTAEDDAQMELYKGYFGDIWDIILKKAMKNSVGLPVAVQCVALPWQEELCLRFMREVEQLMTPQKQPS
Experiment: Determination of FAAH inhibitory activity in rat (rat brain membrane preparations, [3H]-anandamide hydrolysis)
Format: biochemical
Conditions: rat brain membrane preparations; for pIC50: read-out: FAAH Inhibition IC50
Method: Determination of FAAH Inhibitory Activity in Rat
The preparation of rat brain membranes preparations and the determination of FAAH inhibitory activity were carried out according to the Jonsson et al. method [Br. J. Pharmacol., 133, 1263 (2001)].
(1) Preparation of Rat Brain Membranes Preparations (FAAH Enzyme Solution)
The cerebrum was extracted from rats and was freeze-stored at −80° C. To the frozen cerebrum was added 4° C. enzyme homogenization buffer (20 mM HEPES-buffer pH 7.0, 1 mM MgCl2) and the mixture was homogenized using a homogenizer in ice and the homogenates were centrifuged (36,000×g for 20 minutes). After repeating operations of homogenization and centrifugation, the tissue pellets were re-suspended with 4° C. enzyme homogenization buffer. The re-suspensions were incubated at 37° C. for 15 minutes and were centrifuged (36,000×g for 20 minutes), and the resulting tissue membranes were then re-suspended with enzyme solution preparation buffer (50 mM Tris-HCl buffer pH 7.4, 1 mM EDTA, 3 mM MgCl2). The protein concentration in the resulting membrane preparations were determined according to a colorimetry method (BCA Protein Assay: Pierce Inc.) and the preparations were freeze-stored at −80° C. until used for assay.
(2) Screening of Substances for Inhibiting FAAH Activity
To the above membrane preparations (final concentration 100 μg/mL) were added a solution of test substances in DMSO (final concentration in DMSO 1%) and an assay buffer (for final preparation; 22 mM Tris-HCl (pH 7.6), 1.4 mM EDTA, 1.5% BSA, 0.6 mM MgCl2) and the resulting mixtures were preincubated at 37° C. for 10 minutes. Thereto was added a substrate solution (for final preparation; 2 nM [^3H]-Anandamide (American Radiolabeled Chemicals Inc.)+2 μM Anandamide (Sigma-Aldrich Co.)) (final assay volume of 200 μL) and the resulting mixtures were incubated at 37° C. for 10 minutes. Here in control experiment, DMSO was added instead of the solution of test substance in DMSO. Also in blank experiment, DMSO was added instead of the solution of test substance in DMSO and an enzyme solution preparation buffer was also added instead of the membrane preparations. After the incubation, thereto was added a 400 μL ice-cooled solution of chloroform and methanol (1:1 ratio by volume) and the resulting mixtures were stirred. An ethanolamine (ethanolamine-1-[^3H]) as a decomposed product was separated into an upper layer (water/methanol layer) by centrifugation (1,000×g for 10 minutes). The upper layer 200 μL was transferred into 96 well Deepwell Luma Plate-96 (PerkinElmer Inc.) and the radioactivity was measured by microplate scintillation counter (TopCount NXT™: […].). The substances showing a lower measured value compared to those of control were selected as the compound having a FAAH inhibitory activity.
(3) Determination of IC50 Value
The test substances were prepared such that the final concentration of the compounds is within the range of 0.1 nM to 1 μM and were then examined on the effect on FAAH activity according to the above-mentioned protocol.

[1] = 100 nM test substance, read-out: FAAH Inhibition, Inhibition Rate at 100 nM
[2] = at 100 nM, read-out: FAAH Inhibition Inhibition Rate at 100 nM

| Structure (SMILES) | inhibition at 0.1 µM [1] [%] | pIC50 (test substance 0.1 nM to 1 μM) | inhibition at 0.1 µM [2] [%] | pIC50 |
| --- | --- | --- | --- | --- |
| CCN(C)C(=O)n1c(=O)n(C)c2nc(Cc3ccccc3)ncc21 [Example 278, 2-Benzyl-N-ethyl-N,9-dimethyl-8-oxo-8,9-dihydro-7H-purine-7-carboxamide] | 99 | 8.10 | – | – |
| Cn1c(=O)n(C(=O)N2CCC2)c2nc(COc3ccc(F)cc3)ncc21 [Example 426] | 84 | 8.05 | – | – |
| CCN(C)C(=O)n1c(=O)n(C)c2nc(-c3cccc(OC)c3)ncc21 [Example 60, N-Ethyl-2-(3-methoxyphenyl)-N,9-dimethyl-8-oxo-8,9-dihydro-7H-purine-7-carboxamide] | 99 | 8.22 | – | – |
| COc1cccc(-c2ncc3c(n2)n(C(=O)N2CCCC2)c(=O)n3C)c1 [Example 230, 2-(3-Methoxyphenyl)-7-methyl-9-(pyrrolidin-1-ylcarbonyl)-7,9-dihydro-8H-purine-8-one] | 94 | 7.36 | – | – |
| Cn1c(=O)n(C(=O)N2CCC(CCc3ccc(Cl)cc3)CC2)c2cnc(-c3cccnc3)nc21 [Example 147, 7-({4-[2-(4-Chlorophenyl)ethyl]piperidin-1-yl}carbonyl)-9-methyl-2-(pyridin-3-yl)-7,9-dihydro-8H-purine-8-one] | 96 | > 9.00 | – | – |
| CCn1c(=O)n(C(=O)N2CCCC2)c2cnc(-c3ccccc3)nc21 [Example 303] | 101 | 8.15 | – | – |
| Cn1c(=O)n(C(=O)N2CCCC2)c2nc(/C=C/c3cccc(F)c3)ncc21 [Example 246, 2-[(E)-2-(3-Fluorophenyl)ethenyl]-7-methyl-9-(pyrrolidin-1-ylcarbonyl)-7,9-dihydro-8H-purine-8-one] | 98 | 7.64 | – | – |
| Cn1c(=O)n(C(=O)N2CCCC2)c2cnc(Cc3cccc(F)c3)nc21 [Example 255, 2-(3-Fluorobenzyl)-9-methyl-7-(pyrrolidin-1-ylcarbonyl)-7,9-dihydro-8H-purine-8-one] | 100 | 7.85 | – | – |
| COc1cccc(-c2ncc3c(n2)n(C)c(=O)n3C(=O)N2CCC2)c1 [Example 57, 7-(Azetidin-1-ylcarbonyl)-2-(3-methoxyphenyl)-9-methyl-7,9-dihydro-8H-purine-8-one] | 101 | 8.30 | – | – |
| CN(CCC1CCCCC1)C(=O)n1c(=O)n(C)c2nc(-c3ccncc3)ncc21 [Example 223, N-(2-Cyclohexylethyl)-N,9-dimethyl-8-oxo-2-(pyridin-4-yl)-8,9-dihydro-7H-purine-7-carboxamide] | 105 | > 9.00 | – | – |
| CN(C)C(=O)n1c(=O)n(C)c2cnc(-c3cccc(OC(F)F)c3)nc21 [Example 331, 2-[3-(Difluoromethoxy)phenyl]-N,N,7-trimethyl-8-oxo-7,8-dihydro-9H-purine-9-carboxamide] | 77 | 7.48 | – | – |
| CCCn1c(=O)n(C(=O)N(C)C)c2nc(CCc3cccc(F)c3)ncc21 [Example 647, 2-[2-(3-Fluorophenyl)ethyl]-N,N-dimethyl-8-oxo-7-propyl-7,8-dihydro-9H-purine-9-carboxamide] | – | – | 100 | 8.00 |
| Cn1c(=O)n(C(=O)N2CCC2)c2cnc(COc3cccc(OC(F)F)c3)nc21 [Example 437] | 96 | 7.96 | – | – |
| Cc1cc(F)cc(-c2ncc3c(n2)n(C)c(=O)n3C(=O)N2CCCC2)c1 [Example 201, 2-(3-Fluoro-5-methylphenyl)-9-methyl-7-(pyrrolidin-1-ylcarbonyl)-7,9-dihydro-8H-purine-8-one] | 99 | 7.59 | – | – |
| CCCCc1ncc2c(n1)n(C)c(=O)n2C(=O)N1CCCC1 [Example 274, 2-Butyl-9-methyl-7-(pyrrolidin-1-ylcarbonyl)-7,9-dihydro-8H-purine-8-one] | 98 | 8.00 | – | – |
| COc1cccc(-c2ncc3c(n2)n(C)c(=O)n3C(=O)N2CC=C(/C=C/c3ccc(F)cc3)CC2)c1 [Example 95, 7-({4-[(E)-2-(4-Fluorophenyl)ethenyl]-3,6-dihydropyridin-1(2H)-yl}carbonyl)-2-(3-methoxyphenyl)-9-methyl-7,9-dihydro-8H-purine-8-one] | 101 | 8.52 | – | – |
| C/C=C/c1ncc2c(n1)n(C)c(=O)n2C(=O)N1CCCC1 [Example 217] | 99 | 7.57 | – | – |
| CCn1c(=O)n(C(=O)N2CCC2)c2nc(CCc3ccccc3F)ncc21 [Example 649, 9-(Azetidin-1-ylcarbonyl)-7-ethyl-2-[2-(2-fluorophenyl)ethyl]-7,9-dihydro-8H-purine-8-one] | – | – | 90 | 7.77 |
| COCc1ncc2c(n1)n(C)c(=O)n2C(=O)N1CC[C@H](Oc2cccc(F)c2)C1 [Example 482, 7-{[(3S)-3-(3-Fluorophenoxy)pyrrolidin-1-yl]carbonyl}-2-(methoxymethyl)-9-methyl-7,9-dihydro-8H-purine-8-one] | 104 | 8.00 | – | – |
| Cc1ccc(-c2ncc3c(n2)n(C)c(=O)n3C(=O)N2CCCC2)cc1F [compound 192] | 103 | 7.41 | – | – |

More lines, now with the values ahead:

| inhibition at 0.1 µM [1] [%] | pIC50 (test substance 0.1 nM to 1 μM) | inhibition at 0.1 µM [2] [%] | pIC50 | Structure (SMILES) |
| --- | --- | --- | --- | --- |
| 95 | 7.55 | – | – | CN(C)C(=O)n1c(=O)n(C)c2cnc(CCc3ccc(F)c(C4CC4)c3)nc21 [compound 527] |
| 92 | 7.77 | – | – | CN(C)C(=O)n1c(=O)n(C)c2cnc(CCc3cccc(C(F)(F)F)c3)nc21 [compound 539] |
| 101 | 7.96 | – | – | CN(C)C(=O)n1c(=O)n(C)c2cnc(-c3cccc(C(F)(F)F)c3)nc21 [compound 325] |
| 69 | 7.15 | – | – | Cc1cc(C)cc(-c2ncc3c(n2)n(C)c(=O)n3C(=O)N2CCCC2)c1 [compound 197] |
| 79 | 7.57 | – | – | CN(C)C(=O)n1c(=O)n(C)c2cnc(CCc3cccc(OC(F)F)c3)nc21 [compound 548] |
| 35 | < 7.00 | – | – | Cn1c(=O)n(C(=O)N2CCCC2)c2cnc(Cc3cccc(-c4ccccc4)c3)nc21 [compound 272] |
| 83 | 7.00 | – | – | Cn1c(=O)n(C(=O)N2CCC2)c2nc(CCc3cccc(C4CC4)c3)ncc21 [compound 572] |
| – | – | 76 | 7.57 | CN(C)C(=O)n1c(=O)n(C)c2cnc(CCOc3cccc(F)c3)nc21 [compound 639] |
| 93 | 7.70 | – | – | Cn1c(=O)n(C(=O)N2CCC2)c2cnc(COc3ccccc3)nc21 [compound 403] |
| 80 | 7.49 | – | – | Cn1c(=O)n(C(=O)N2CCC2)c2cnc(Cc3cccc(F)c3)nc21 [compound 372] |
| – | – | 107 | 8.40 | CCc1ncc2c(n1)n(C)c(=O)n2C(=O)N1CC(c2ccccc2)C1 [compound 627] |
| 72 | 7.04 | – | – | Cn1c(=O)n(C(=O)N2CCC2)c2nc(-c3cccc(F)c3)ncc21 [compound 353] |
| 95 | 7.62 | – | – | Cc1ccc(C)c(CCc2ncc3c(n2)n(C(=O)N(C)C)c(=O)n3C)c1 [compound 507] |
